According to patent publication US7790771B1, “Use of tosylchloramide(s) for treating disease of the skin, mucous membrane, organs and tissues” (Engelhard Arzneimittel GmbH & Co., priority 1999, dated 2010):

Assay: Treatments of Example 5 repeated with corticoid-free bases containing only chloramine T
Format: in vivo
Conditions: powder added to the bath water
Description: Instead of adhesive salve Volon A with added chloramine T, a normal cooling salve was prepared—“unguentum leniens” which merely contained chloramine T-powder (2% by weight) as active ingredient, but no corticoid. The success described under Example 5 was the same.

Cc1ccc(S(=O)(=O)NCl)cc1.[Na] [chloramine T, tosylchloramide-sodium]
treatment results compared with Example 5: comparable results
